Where no end group is shown, it is not given here. The star is where a group is joined. SO3H = O=S(=O)(O)*

This assay concerns RF-48 cells. The assay can be described thus: ghrelin release from RF-48 cells measured by enzyme immunoassay. It is filed as cell-based, human. Particulars: 1 hour incubation with test compound, supernatant measured with EIA kit, compared with control and control+vehicle (FIG. 1). The protocol:
These test compounds were made as 100× stock solutions by dissolving them in pure ethanol, as a vehicle. The test compounds were then diluted 1/100 in the Leibovitz L-15 medium containing 0.5% foetal bovine serum (FBS).
Since the effect caused by these test compounds on ghrelin release by a RF-48 cell line was tested, RF-48 cells were grown during incubation at 37° C. in Leibovitz's L15 medium with 2 mM L-glutamine and containing 10% (vol/vol) FBS in the absence of CO2.
After cell confluence was obtained, the cells were plated in 24-well cultures plates (1×10^5 cells/well). Several wells were subsequently exposed to one of the test compounds as prepared above. For each type and concentration of test compound tested, a series of three tests was carried out.
After 1 hour of incubation of the thus-filled wells containing both the cells and the test compound at the same conditions as those applied during growing of the RF-48 cells, a sample was taken from each well to measure ghrelin release.
Each sample was centrifuged at 3000 rpm to remove the cells from the sample and the supernatant (containing the ghrelin formed as well as the medium and the test compound) was transferred to a separate tube. The ghrelin release was measured using a commercial enzyme immunoassay kit (from Phoenix Pharmaceuticals, Belmont, Calif., USA). […]

With “Tyr(SO3H]27)Cholecystokinin fragment 26-33 Amide (DY(SO3H)MGWMDF-NH2; UniProt P06307 96-103, looked up) [CCK]”, the ghrelin release result is reported as “stimulate the release of ghrelin”.

The values are drawn from patent publication US20060252048A1, “Method for testing ghrelin release” (priority 2003, published 2006).
